# Measured values reported in US20260226084A1, “DUAL RAF AND TUBULIN INHIBITORS AND METHODS OF USE THEREOF” (Deciphera Pharmaceuticals, LLC, priority 2023, published 2026).
# Experiments:
# [1] = tested on: HCT-116 cells; assay: HCT-116 Cell Proliferation Assay; type: cell-based; conditions: Homo sapiens, HCT-116, HCT-116 cells; Table 2; read-out: Inhibition of cell proliferation in HCT-116 (IC50 class)
# Procedure: HCT-116 cells (catalog #CCL-247) are obtained from the American Type Culture Collect (ATCC, Manassas, VA). Briefly, cells are grown in McCoy's 5A supplemented with 10% characterized fetal bovine serum (Invitrogen, Carlsbad, CA) and 1% Penicillin/Streptomycin/L-Glutamine at 37° C., 5% CO2, and 95% humidity. Cells are expanded until reaching 70-95% confluency at which point they are subcultured or harvested for assay use. A serial dilution of test compound is dispensed into a 384-well black clear bottom plate in triplicate. 375 cells are added per well in 50 μL complete growth medium in the 384-well plate. Plates are incubated for 67 to 72 hours at 37° C., 5% CO2, and 95% humidity. At the end of the incubation, 40 μL of a […] solution of resazurin (Sigma, St. Louis, MO) in PBS is added to each well of the plate and plates are incubated for an additional 4 to 5 h at 37° C., 5% CO2, and 95% humidity. Plates are read on a Synergy2 or equivalent reader (Biotek, Winooski, VT) using an excitation of 540 nm and an emission of 600 nm. Data is analyzed using Prism software (Graphpad, San Diego, CA) to calculate IC50 values.
# [2] = tested on: HPAF-II cells; assay: HPAF-II Cell Proliferation Assay; type: cell-based; conditions: Homo sapiens, HPAF-II, HPAF-II cells; Table 2; read-out: Inhibition of cell proliferation in HPAF-II (IC50 class)
# Procedure: (§1) HPAF-II cells (catalog #CRL-1997) are obtained from the American Type Culture Collect (ATCC, Manassas, VA). Briefly, cells are grown in Minimum Essential Media supplemented with 10% characterized fetal bovine serum (Invitrogen, Carlsbad, CA) and 1% Penicillin/Streptomycin/L-Glutamine at 37° C., 5% CO2, and 95% humidity. Cells are expanded until reaching 70-95% confluency at which point they are sub-cultured or harvested for assay use. A serial dilution of test compound is dispensed into a 384-well black clear bottom plate in triplicate. 750 cells are added per well in 50 μL complete growth medium in the 384-well plate. Plates are incubated for 115 to 120 hours at 37° C., 5% CO2, and 95% humidity. At the end of the incubation, 40 μL of a 440 μM solution of resazurin (Sigma, St. Louis, MO) in PBS is added to each well of the plate and plates are incubated for an additional 18 to 24 hours at 37° C., 5% CO2, and 95% humidity. Plates are read on a Synergy2 or equivalent reader (Biotek, Winooski, VT) using an excitation of 540 nm and an emission of 600 nm. Data is analyzed using Prism software (Graphpad, San Diego, CA) to calculate IC50 values.
# [3] = target: T1, B-Raf kinase (SEQ ID NO: 1) (Homo sapiens, UniProt P15056); assay: Biochemical Assay for B-Raf (coupled pyruvate kinase/lactate dehydrogenase assay); conditions: 1 mM ATP; read-out: BRAF (inhibition of biochemical activity, IC50)
# T1 construct: GST (N); purchased Sigma
# [4] = tested on: Pa16c cells; assay: Pa16c Cell Proliferation Assay; type: cell-based; conditions: Table 2, read-out: Inhibition of cell proliferation in Pa16c (IC50 class)
# Procedure: as §1, with “Pa16c” for “HPAF-II”, “cells” for “cells (catalog #CRL-1997)”, “Dr. Channing Der, University of North Carolina at Chapel Hill.” for “the American Type Culture Collect (ATCC, Manassas, VA).”, “Dulbecco's Modified Eagle Medium” for “Minimum Essential Media”, “67” for “115”, “72 h” for “120 hours”
# [5] = tested on: MiaPaca-2 cells; assay: MiaPaca-2 Cell Proliferation Assay; type: cell-based; conditions: Homo sapiens, MIA PaCa-2, MiaPaca-2 cells; Table 2; read-out: Inhibition of cell proliferation in MiaPaca-2 (IC50 class)
# Procedure: Miapaca-2 cells (catalog #CRL-1420) are obtained from the American Type Culture Collect (ATTC, Manassas, VA). Briefly, cells were grown in DMVEM supplemented with 10 characterized fetal bovine serum (Invitrogen, Carlsbad, CA), 2.5% New Zealand sourced horse serum and 1 Penicillin/Streptomycin/L-Glutamine at 37° C., 5 CO2, and 95% humidity. Cells are expanded until reaching 70-95% confluency at which point they are sub-cultured or harvested for assay use. A serial dilution of test compound is dispensed into a 96-well black clear bottom plate in triplicate. Three thousand cells are added per well in 200 μL complete growth medium in the 96-well plate. Plates are incubated for 67 to 72 h at 37° C., 5% CO2, and 95% humidity. At the end of the incubation, 40 μL of a 440 μM solution of resazurin (Sigma, St. Louis, MO) in PBS is added to each well of the plate and plates are incubated for an additional 5 to 6 h at 37° C., 5% CO2, and 95% humidity. Plates are read on a Synergy2 or equivalent reader (Biotek, Winooski VT) using an excitation of 540 nm and an emission of 600 nm. Data is analyzed using Prism software (Graphpad, San Diego, CA) to calculate IC50 values.
# [6] = target: T2, C-Raf kinase (SEQ ID NO: 2) (Homo sapiens, UniProt P04049, Y340D/Y341D); assay: Biochemical Assay for C-Raf (coupled pyruvate kinase/lactate dehydrogenase assay); conditions: 1 mM ATP; read-out: CRAF (inhibition of biochemical activity, IC50)
# T2 construct: C-Raf residues 306-end; Y340D, Y341D with; GST (N); purchased Sigma
# T2 sequence (P04049 307-648 Y340D/Y341D): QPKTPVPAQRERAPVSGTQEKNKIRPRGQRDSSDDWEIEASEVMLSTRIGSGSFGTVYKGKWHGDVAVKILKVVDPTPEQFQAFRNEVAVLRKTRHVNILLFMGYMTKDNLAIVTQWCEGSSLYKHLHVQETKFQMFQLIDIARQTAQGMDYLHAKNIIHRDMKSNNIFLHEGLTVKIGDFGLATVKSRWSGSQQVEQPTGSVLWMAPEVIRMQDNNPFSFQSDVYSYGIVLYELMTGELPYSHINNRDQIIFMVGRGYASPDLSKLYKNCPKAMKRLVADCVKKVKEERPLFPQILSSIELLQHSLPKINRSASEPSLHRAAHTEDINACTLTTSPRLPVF
# T1 sequence (P15056 416-766): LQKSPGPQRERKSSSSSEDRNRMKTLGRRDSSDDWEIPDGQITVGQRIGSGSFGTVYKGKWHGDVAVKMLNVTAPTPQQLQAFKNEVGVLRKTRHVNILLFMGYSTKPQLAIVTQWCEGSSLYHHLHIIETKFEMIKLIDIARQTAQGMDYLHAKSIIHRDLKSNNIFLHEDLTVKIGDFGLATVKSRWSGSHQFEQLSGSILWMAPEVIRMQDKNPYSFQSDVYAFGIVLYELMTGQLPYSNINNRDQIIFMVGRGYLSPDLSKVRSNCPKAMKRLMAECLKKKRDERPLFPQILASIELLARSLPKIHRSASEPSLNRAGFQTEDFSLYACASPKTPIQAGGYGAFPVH
IC50 [1] [µM],IC50 [3] [µM],IC50 [5] [µM],IC50 [6] [µM],Structure (SMILES),IC50 [2] [µM],IC50 [4] [µM]
0.1 to 0.5,0.1 to 0.5,0.1 to 0.5,< 0.1,Cc1ccc(NC(=O)c2ccc(C(F)(F)F)nn2)cc1-c1ccnc(-c2ccnc(NC(=O)C3CC3)c2)c1 [Example 19],0.1 to 0.5,< 0.1
0.1 to 0.5,< 0.1,< 0.1,< 0.1,CC(=O)Nc1cc(-c2cc(-c3cc(NC(=O)c4ccc(C(F)F)nc4)c(F)cc3C)ccn2)ccn1 [Example 20],< 0.1,0.1 to 0.5
0.1 to 0.5,0.1 to 0.5,0.1 to 0.5,< 0.1,Cc1ccc(NC(=O)c2cc(C(F)(F)F)cnn2)cc1-c1ccnc(-c2ccnc(NC(=O)CC3CC3)c2)c1 [Example 22],< 0.1,< 0.1
1 to 10,< 0.1,1 to 10,< 0.1,Cc1ccc(NC(=O)c2ccc(C(F)(F)F)nn2)cc1-c1cncc(-c2cc(NC(=O)C3CC3)ncn2)c1 [Example 23],1 to 10,1 to 10
< 0.1,< 0.1,< 0.1,< 0.1,CC(=O)Nc1cc(-c2cc(-c3cc(NC(=O)c4ccc(C(F)(F)F)nc4)ccc3C)ccn2)ccn1 [Example 24],< 0.1,0.1 to 0.5
0.1 to 0.5,0.1 to 0.5,0.1 to 0.5,0.1 to 0.5,CC(=O)Nc1cc(-c2cncc(-c3cc(NC(=O)c4ccc(C(F)F)nc4)ccc3C)n2)ccn1 [Example 26],0.5 to 1,0.5 to 1
1 to 10,< 0.1,1 to 10,< 0.1,Cc1ncc(NC(=O)c2cc(C(F)(F)F)cnn2)cc1-c1ccnc(-c2ccnc(NC(=O)C3CC3)c2)c1 [Example 34],1 to 10,1 to 10

# The next lines start with the molecule.
Structure (SMILES),IC50 [1] [µM],IC50 [3] [µM],IC50 [5] [µM],IC50 [6] [µM],IC50 [2] [µM],IC50 [4] [µM]
Cc1ccc(NC(=O)c2cc(C(F)(F)F)cnn2)cc1-c1ccnc(-c2ccnc(NC(=O)C3(C)CCC3)c2)c1 [Example 7],0.1 to 0.5,0.5 to 1,0.1 to 0.5,0.1 to 0.5,0.1 to 0.5,0.1 to 0.5
Cc1ccc(NC(=O)c2cc(C(F)(F)F)cnn2)cc1-c1ccnc(-c2ccnc(NC(=O)C3CCC3)c2)c1 [Example 8],0.1 to 0.5,< 0.1,0.1 to 0.5,< 0.1,< 0.1,< 0.1
COCC(=O)Nc1cc(-c2nccc(-c3cc(NC(=O)c4cc(C(F)(F)F)cnn4)ccc3C)n2)ccn1 [Example 10],0.5 to 1,< 0.1,1 to 10,< 0.1,0.5 to 1,1 to 10
Cc1ccc(NC(=O)c2cc(C(F)(F)F)cnn2)cc1-c1cccc(-c2cc(NC(=O)C3CC3)ncn2)c1 [Example 11],0.1 to 0.5,< 0.1,0.5 to 1,< 0.1,0.5 to 1,1 to 10
CC(=O)Nc1cc(-c2cc(-c3cc(NC(=O)c4ccc(C(F)(F)F)nn4)ccc3C)ccn2)ccn1 [Example 13],< 0.1,0.5 to 1,< 0.1,0.1 to 0.5,< 0.1,< 0.1
Cc1ccc(NC(=O)c2cc(C3CC3)cnn2)cc1-c1cc(-c2ccnc(NC(=O)C3CC3)c2)nc(NCCO)n1 [Example 15],< 0.1,< 0.1,0.1 to 0.5,< 0.1,1 to 10,1 to 10
Cc1cc(-c2cc(NC(=O)c3cncc(C(C)(F)F)c3)ccc2C)cc(-c2ccnc(NC(=O)C3CC3)c2)n1 [Example 16],0.1 to 0.5,< 0.1,0.5 to 1,< 0.1,1 to 10,1 to 10
Cc1cc(-c2cc(NC(=O)c3cc(C(F)(F)F)cnn3)ccc2C)cc(-c2ccnc(NC(=O)C3CC3)c2)n1 [Example 18],0.1 to 0.5,< 0.1,0.1 to 0.5,< 0.1,0.1 to 0.5,0.1 to 0.5
